US10076550B2, “Synergistic pharmaceutical composition for gastroinestinal disorders” (COUNCIL OF SCIENTIFIC & INDUSTRIAL RESEARCH, priority 2014, dated 2018)
Structures can show the parent of a compound that is named as a salt. Marks after values point to notes of the source that are not given here.

Columns and labels:
Type in all cases: in vivo
[1] = system: castor-oil induced diarrhea; test: castor oil induced diarrhea in rats; conditions: reference drug 5.0 mg/kg p.o., 2 mL castor oil after 60 min, observed 4 h
Experimental: The efficacy of composition as an antidiarrheal agent was evaluated using castor oil induced diarrhea. The castor oil model has been an extensively used pharmacological test to screen and evaluate antidiarrheal properties of drugs in rats. The liberation of ricinoleic acid from castor oil results in irritation and inflammation of intestinal mucosa, leading to release of prostaglandins, which stimulates motility and secretion (Pierce, N. F., Carpenter. C. C. J., Elliiot, H. Z. and Greenough, W. B., Effects of prostaglandins, Theophylline and cholera exotoxin upon transmucosalwater and electrolyte movement in canine jejunum, Gastroenterology, 1971; 60: 22-32). Castor oil is also reported to induce diarrhea by increasing the volume of intestinal content by prevention of the reabsorption of water. […] After 60 min each animal was given with 2 mL of castor oil by orogastric cannula, and placed in a separate cage and observed for 4 h defecation the characteristic diarrheal droppings were noted and recorded.
The castor oil model has been an extensively used pharmacological test to screen and evaluate antidiarrheal properties of drugs in rats. […] After 60 min each animal was given with 2 mL of castor oil by orogastric cannula, and placed in a separate cage and observed for 4 h defecation the characteristic diarrheal droppings were noted and recorded.

[2] = system: cold restrained stress (CRS) induced ulcers; test: cold restrained stress (CRS) induced ulcers in rats; conditions: positive control, dose given as 50, mean ± SEM, six rats
Experimental: The effect of composition was further observed on cold resistant stress model of ulcer. […] Rats were starved for 48 hours, and the drinking solution was removed 1 hour before starting experiments. For cold-restraint s tress, the rats were restrained in individual close-fitting tubular wire-mesh cages at 4° C. […] At the end of 2 hours, all the rats were sacrificed. The ulcer index was scored, based upon the product of length and width of the ulcers present in the glandular portion of the stomach (mm^2/rat).
The effect of composition was further observed on cold resistant stress model of ulcer. […] Rats were starved for 48 hours, and the drinking solution was removed 1 hour before starting experiments. For cold-restraint stress, the rats were restrained in individual close-fitting tubular wire-mesh cages at 4° C.

ethanol induced ulcers = ethanol induced ulcers in rats; conditions: EtOH 1 ml/200 g, positive control, dose given as 50, mean ± SEM, six rats
Experimental: Further, effect of the composition was evaluated using ethanolinduced ulcer model. […] The ulcer index was scored, based upon the product of length and width of the ulcers present in the glandular portion of the stomach (mm^2/rat).
The ulcer index was scored, based upon the product of length and width of the ulcers present in the glandular portion of the stomach (mm^2/rat).

[3] = system: pylorus ligation induced ulcers; test: pylorus ligation (PL) induced ulcers in rats; conditions: positive control, dose given as 50, mean ± SEM, six rats
Experimental: The effect of the composition as an antiulcer agent was further justified using pylorus ligation (PL)-induced ulcer model. […] The mentioned drugs were administered for a period of 5 days as described above and the rats were kept for 18 h fasting and care was taken to avoid coprophagy. Animals were anaesthetized and the abdomen was opened and pylorus ligation was done without causing any damage to its blood supply. After 4 h, stomachs were dissected out and cut open along the greater curvature and ulcers were scored in the glandular portion of the stomach as mentioned in aspirin induced ulcers.
The effect of the composition as an antiulcer agent was further justified using pylorus ligation (PL)-induced ulcer model.
The mentioned drugs were administered for a period of 5 days as described above and the rats were kept for 18 h fasting and care was taken to avoid coprophagy. Animals were anaesthetized and the abdomen was opened and pylorus ligation was done without causing any damage to its blood supply. After 4 h, stomachs were dissected out and cut open along the greater curvature and ulcers were scored in the glandular portion of the stomach as mentioned in aspirin induced ulcers.

aspirin induced ulcers = aspirin induced ulcers in rats; conditions: aspirin 200 mg/kg, positive control, dose given as 50, mean ± SEM, six rats
Experimental: The effect of the composition on ulcers was evaluated using aspirin induced ulcer model. […] Ulcers were scored after 4 h. The animals were sacrificed and the stomach was then excised and cut along the greater curvature, washed carefully with 5.0 ml of 0.9% NaCl and ulcers were scored in the glandular portion of the stomach. Ulcer index was calculated by adding the total number of ulcers per stomach and the total severity of ulcers per stomach.
The effect of the composition on ulcers was evaluated using aspirin induced ulcer model.

SMILES: CCOC(=O)C1(c2ccccc2)CCN(CCC(C#N)(c2ccccc2)c2ccccc2)CC1 [DiphenoxylateHCl, diphenoxylate HCl]
- Total number of faecal matter [1]: 19

SMILES: CNC(=C[N+](=O)[O-])NCCSCc1ccc(CN(C)C)o1 [Ranitidine, ranitidine]
- Ulcer Index [2]: 6.9 ± 1.0^c mm^2/rat
- Ulcer Index (ethanol induced ulcers): 10.3 ± 2.8^a mm^2/rat
- Ulcer Index [3]: 4.9 ± 1.3^b
- Ulcer Index (aspirin induced ulcers): 7.6 ± 1.4^a
